Experimental data reported in patent US20230183263A1, “COMBINATION FOR TREATING HEPATITIS B” (FUJIAN AKEYLINK BIOTECHNOLOGY CO., LTD., priority 2020, published 2023).

Columns and labels:
[1] = tested on: D-type HBV; assay: Single drug anti-HBV activity in HepG2-NTCP in vitro infection model; type: cell-based, Hepatitis B Virus; settings: for EC50: Hepatitis B virus, 216 h, HepG2-NTCP
Method: (§1) In this study, HepG2-NTCP cell in vitro infection model was used to evaluate the inhibitory activity of a combined administration of compound WWSO with Entecavir (ETV) on HBV The content of HBV DNA in cell supernatant was detected by real-time quantitative PCR (qPCR) method, and the content of HBeAg and HBsAg was detected by ELISA, and the anti-HBV activity of the combined action of the compound was determined, while CellTiter-Glo was used to detect the effect of the test compound on cell viability.
(§2) Cell line: HepG2-NTCP cell line was constructed and provided by WuXi AppTec. HepG2-NTCP cells were HepG2 cells stably transfected and continued to highly express the human NTCP gene, and were susceptible to be infected by HBV The cell medium was DMEM medium added with 10% fetal bovine serum, 1% Penicillin-Streptomycin, 1% glutamine, 1% non-essential amino acids and G418 (500 µg/mL).
Virus: D-type HBV was concentrated from HepG2.2.15 cell culture supernatants.
2.1 On day 0, HepG2-NTCP cells were seeded into a 48-well cell culture plate at a density of 75,000 cells/well, and then the cells were cultured at 5% CO2 and 37° C. overnight.
2.2 On day 2, HBV was added to infect HepG2-NTCP cells.
2.3 On day 3, WWSO and ETV single drugs were administered at seven different concentrations, respectively, or WWSO in combination with ETV was administered at 5 different concentrations in orthorhombic proportion, added to 48-well plates with each combination having three duplicate plates.
2.4 On day 6, the cell supernatant was discarded and fresh medium containing the compounds was added, and the cells were cultured at 5% CO2 and 37° C. for 3 days.
(§3) 2.5 On day 9, cell plate supernatant treated by compound was collected and DNA was extracted according to the QIAamp 96 DNA Blood Kit (12) instructions. HBeAg and HBsAg were detected according to the instructions of ELISA detection kit, meanwhile, the cytotoxicity of compound pairs was detected by CellTiter-Glo kit, and the chemiluminescence intensity (RLU) of each cell well was detected by multifunctional microplate reader according to the method of kit instructions. HBV DNA was quantified by qPCR method. HBV plasmid DNA was used as the standard, and standard HBV plasmid DNA concentration was diluted 7 points starting from 10^7 copies/µL at a 10-fold gradient. The HBV DNA copy number was calculated in each test sample by fitting the standard curve using the HBV DNA copy number and CT values of each standard.

[2] = Cytotoxicity in HepG2-NTCP cells by CellTiter-Glo; type: cell-based, human; settings: human, single drug, day 9
Method: as §1, §2, §3

[3] = tested on: D-type HBV; assay: Single drug in vitro antiviral activity in HBV-infected PHH (HBV DNA qPCR, HBeAg and HBsAg ELISA); type: cell-based, Hepatitis B Virus; settings: for EC50: Hepatitis B virus, 192 h, Day 8
Method: 1. The PHH model was used to evaluate the single drug in vitro antiviral activity of the test compound
On day 0, primary human hepatocytes were resuscitated and plated into two 48-well plates (1.32×10^5 cells/well).
On day 1, HBV was added to infect PHH (2000 GE/cell). […] Fresh medium with compound was replaced every 1 to 2 days.
The final concentration of DMSO in the medium was 2%.
The medium was replaced with the fresh medium containing the compound on days 4, 6, 8, 10, 12, 14, 16, 18 and 20. On day 22, the culture supernatant was collected and cell viability was detected using CellTiter-Glo.
Cell culture supernatants on days 8, 14 and 22 were collected for HBV DNA, HBeAg and HBsAg detection.
(§4) HBV DNA detection: DNA in the supernatant was extracted according to the DNA extraction kit (Qiagen-51162), and HBV DNA in the sample was quantified by qPCR method, and the qPCR reaction system is shown in Table 6. HBV plasmid DNA was used as a standard for 10-fold serial dilution, and the standard range was from 1.0× 10^7 copies/µL to 10 copies/µL. The PCR reaction program was: Heating at 95° C. for 10 minutes, then cycle mode was entered, and heating at 95° C. for 15 seconds, then at 60° C. for 1 minute for a total of 40 cycles. The HBV DNA content in the samples was calculated based on the standard curve and the Ct value of each sample.
(§5) Detection of HBeAg and HBsAg: According to the instructions of ELISA kit, the levels of HBeAg and HBsAg in supernatant were detected. The method was briefly described as follows: 50 µL, of standard was taken, and sample and control sample were added into the detection plate, then 50 µL of enzyme conjugate was added to each well, incubated at 37° C. for 60 minutes, and washed with a washing solution and then dried, and then 50 µL of pre-mixed luminescent substrate was added and the mixture was incubated at room temperature for 10 minutes in the dark, and finally the luminescence value was measured by a microplate reader. The content of HBeAg and HBsAg in the sample was calculated according to the standard curve and the chemiluminescence value of each sample.
(§6) Inhibition rate %=(1- HBV DNA content or HBsAg content or HBeAg content in the sample/HBV DNA content or HBsAg content or HBeAg content in DMSO control group) × 100
CC50 and EC50 were calculated by GraphPad Prism software, and the inhibition curve fitting method was sigmoidal dose-response (variable slope).

[4] = Cell viability of PHH by CellTiter-Glo; type: cell-based, human; settings: human, primary human hepatocytes (PHH), HBV infection model, administration after infection, Day 22
Method: (§7) The medium was replaced with the fresh medium containing the compound on days 4, 6, 8, 10, 12, 14, 16, 18 and 20. On day 22, the culture supernatant was collected and cell viability was detected using CellTiter-Glo. The final concentration of DMSO in the cell medium was 2%. The medium was replaced with the medium containing the compound on days 4 and 6. On day 8, the culture supernatant was collected for detecting HBV DNA, HBeAg and HBsAg, and then the collected supernatant was added with CellTiter-Glo to measure cell viability. The final concentration of DMSO in the medium was 2%. The medium was replaced with the medium containing the compound on days 4 and 6. On day 8, the culture supernatant was collected for detecting HBV DNA, HBeAg and HBsAg, and then the collected cell supernatant was added with CellTiter-Glo to measure cell viability. Cell viability detection: After collecting the cell culture supernatant, CellTiter-Glo was diluted with medium at a ratio of 1:1, and added to the cell plate, and left at room temperature for 10 minutes to detect the luminescence value with a microplate reader. Cell activity% = (luminescence value of sample-average value of blank control well)/(luminescence value of DMSO control group-average value of blank control well) × 100 CC50 and EC50 were calculated by GraphPad Prism software, and the inhibition curve fitting method was sigmoidal dose-response (variable slope).

[5] = tested on: human primary hepatocytes (PHH); assay: Cell viability of PHH by CellTiter-Glo; type: cell-based
Method: as §7

[6] = tested on: HepG2-NTCP cells; assay: Cytotoxicity in HepG2-NTCP cells by CellTiter-Glo; type: cell-based, human; settings: single drug and combined action experiments
Method: as §1, §2, §3

[7] = tested on: D-type HBV; assay: Combined administration in HBV-infected PHH, 5x5 matrix, MacSynergy II analysis; type: cell-based, Hepatitis B Virus; settings: two-drug combination with Peg-IFNα-2a; for antagonistic index (inhibition of HBsAg and HBeAg): 95% confidence interval
Method: On day 0, primary human hepatocytes were resuscitated and plated into six 48-well plates (1.32×10^5 cells/well).
On day 1, […] (2000 GE/cell). On the second day, different groups of combined drugs were added for treatment:
The arrangement of the compounds in the combined action is shown in Table 2, and the test concentrations of the compounds are shown in Table 3.
(§8) The final concentration of DMSO in the cell medium was 2%. The medium was replaced with the medium containing the compound on days 4 and 6. On day 8, the culture supernatant was collected for detecting HBV DNA, HBeAg and HBsAg, and then the collected supernatant was added with CellTiter-Glo to measure cell viability.
The arrangement of the compounds in the combined action is shown in Table 4, and the test concentrations of the compounds are shown in Table 5.
as §8, with “in the medium was” for “in the cell medium was”, “the collected cell supernatant was” for “the collected supernatant was”
as §4, §5, §6
Combined efficacy was analyzed by MacSynergy™ II software.

Row | EC50 ([1]; day 9, read-out: HBV DNA EC50) [nM] | EC50 ([1]; day 9, read-out: HBeAg EC50) [nM] | EC50 ([1]; day 9, read-out: HBsAg EC50) [nM] | SMILES | CC50 at 9 day of experiment (read-out) [2] [nM] | combined effect on the inhibition of HBsAg and HBeAg [7] | antagonistic index (inhibition of HBsAg and HBeAg) [7] | further results
1 | 0.06 | > 20 | > 20 | C=C1[C@H](CO)[C@@H](O)C[C@@H]1n1cnc2c(=O)[nH]c(N)nc21 [ETV, Entecavir, reference compound] | > 20 | – | – | –
2 | 1.01 | 2.51 | 3.19 | COCCCOc1cc2c(cc1Cl)-c1cc(=O)c(C(=O)O)cn1[C@H](c1cccs1)O2 [WWS0] | > 100 | – | – | EC50 ([3]; PHH, administration after infection, read-out: EC50 (Day 8) HBV DNA): 45.5 nM; EC50 ([3]; PHH, administration after infection, read-out: EC50 (Day 8) HBeAg): 32.4 nM; EC50 ([3]; PHH, administration after infection, read-out: EC50 (Day 8) HBsAg): 47.3 nM; EC50 ([3]; PHH, administration before infection, read-out: EC50 (Day 8) HBV DNA): 13.5 nM; EC50 ([3]; PHH, administration before infection, read-out: EC50 (Day 8) HBeAg): 26 nM; EC50 ([3]; PHH, administration before infection, read-out: EC50 (Day 8) HBsAg): 47.1 nM; inhibition of HBV DNA, HBeAg and HBsAg ([3]; PHH in vitro infection model, single drug): dose-dependent manner; inhibition of HBV replication, administration before versus after HBV infection ([3]; PHH, two modes of administration compared): basically the same; CC50 at 22 day of experiment (read-out) [4]: > 1000 nM; CC50 ([5]; administration before infection, Day 22): > 1000 nM; cytotoxicity within the test concentration range ([5]; single drug and combined action experiment): no obvious cytotoxicity; inhibition of HBV DNA, HBeAg and HBsAg ([1]; HepG2-NTCP infected by HBV): dose-dependent manner; cytotoxicity within the test concentration range [6]: no obvious cytotoxicity
3 | – | – | – | O=C(O)c1cn2c(cc1=O)-c1cc(Cl)c(OCCN3CCOCC3)cc1OC2c1ccccc1 (stereo not drawn) [WWS01] | – | synergistic or additive effects | 0 | –
4 | – | – | – | COCCCOc1cc2c(cc1OC)-c1cc(=O)c(C(=O)O)cn1[C@H](c1sccc1Cl)O2 [WWS02] | – | synergistic or additive effects | 0 | –
5 | – | – | – | O=C(O)c1cn2c(cc1=O)-c1cc(Cl)c(OCC3CC3)cc1O[C@H]2c1scnc1Cl [WWS03] | – | synergistic or additive effects | 0 | –
